Measurements published in patent US7387999B2, “Simmondsin for use as angiogenesis inhibitor” (priority 2002, dated 2008).
Where two headings read alike, the source gives them in different places. One block for each molecule: values may come before it.

Experiments:
[1] = tested on: chorion allantois membrane (CAM); experiment: chorion allantois membrane (CAM) assay; format: in vivo, chicken; conditions: for effect on blood vessel growth in the CAM (in words): Experiment 1
Description: Fertilized chicken eggs are incubated during 4 days at 37° C. Subsequently, the egg shell is opened to disclose the CAM. In order to reduce the pressure on the CAM for improving its manipulating properties, 2 to 3 ml albumen is removed. The opening is closed using cellophane tape and the eggs are further incubated until day 9 for application of the liquid test compounds using different concentrations. Dulbecco's modified Eagle medium (DMEM) was used as a negative control, whereas Vascular Endothelial Growth factor (VEGF) was used as a positive control (stimulator of angiogenesis). A total polar extract from refined, de-oiled jojoba flour, dimethylsimmondsin purified from this extract and a commercially known angiogenesis inhibitor (Tangeritin) were compared in their angiogenesis-inhibiting activity towards VEGF stimulated angiogenesis in the CAM's. Each of these solubilized test compositions was pipetted on a sterile plastic disc (10 mm diameter) and dried under sterile conditions.
Each disc was treated with cortisone acetate (100 μg/50 μl) in order to avoid inflammatory reactions. After drying, the discs were placed on the CAM with the charged side facing the CAM. The control disc (DMEM) was placed at 1 cm of the disc containing the test component. The opening was sealed with cellophane tape and the eggs were further incubated. At day 11, the tape and discs were removed and 10% buffered formaline was sprayed over the CAM. Eggs were allowed to dry for 2 to 4 h at room T°. Then, the CAM was cut out of the egg and mounted on a glass slide. The vascular density index is measured according to Harris-Hooker et al. (1983; J. Cell. Physiol. 114:302-310); all micro vessels that cross 3 concentric circles with a diameter of 6, 8 and 10 mm were counted, as illustrated on FIG. 2.
The angiogenetic Index (AI) is expressed as {(t/c)×100}−100, whereby t=total number of crossing vessels where the disc containing the test component was located, and c=total number of crossing vessels where the control disc was located. […]

human oestrogen receptor = target: T1, human oestrogen receptor (Homo sapiens, UniProt P03372); experiment: oestrogenic bioassay; format: cell-based; conditions: yeast with human oestrogen receptor; 1, 10, 100, 1000 μM; 3 days; compared to 17 beta-oestradiol standards, FIG. 11
T1 construct: expressed in transfected cells; host or cells: Saccharomyces cerevisiae (recombinant yeast)
T1 sequence (P03372 1-595): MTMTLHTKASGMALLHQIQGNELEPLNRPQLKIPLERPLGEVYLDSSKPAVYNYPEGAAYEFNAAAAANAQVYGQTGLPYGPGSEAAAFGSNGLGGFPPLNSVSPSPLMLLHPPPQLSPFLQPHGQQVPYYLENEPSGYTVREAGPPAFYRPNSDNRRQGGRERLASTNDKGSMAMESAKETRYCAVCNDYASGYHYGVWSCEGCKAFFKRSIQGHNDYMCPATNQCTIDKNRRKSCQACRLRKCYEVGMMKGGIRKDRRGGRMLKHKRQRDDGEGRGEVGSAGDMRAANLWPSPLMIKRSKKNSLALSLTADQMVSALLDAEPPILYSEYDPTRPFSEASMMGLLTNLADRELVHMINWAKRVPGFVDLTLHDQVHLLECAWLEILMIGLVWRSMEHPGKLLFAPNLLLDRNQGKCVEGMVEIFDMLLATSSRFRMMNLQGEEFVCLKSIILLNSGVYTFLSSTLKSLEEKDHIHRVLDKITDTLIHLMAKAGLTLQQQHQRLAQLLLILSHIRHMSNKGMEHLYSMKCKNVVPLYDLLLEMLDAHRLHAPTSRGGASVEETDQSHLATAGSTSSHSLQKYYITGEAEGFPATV
Description: In an experiment, yeast cells (Saccharomyces cerevisiae) containing a human oestrogen receptor (100 μl) was added to 25 ml growth medium. The growth medium comprised • D-glucose (2.5 ml from 20 g D-glucose in 80 ml water); • L-aspartic acid (0.625 ml from 400 mg in 100 ml water); • vitamin solution (0.250 ml from 8 mg thiamine, 8 mg pyridoxine, 8 mg panthotenic acid, 40 mg inositol and 20 ml biotin solution (2 mg in 100 ml water) in 180 ml water); • L-threonine (0.2 ml from 2.4 g in 100 ml water), copper(II)sulphate (0.0625 ml from 160 mg in 50 ml water); • minimal medium (22.5 ml from 1 l water composed of 13.61 g potassium dihydrogenphosphate, 1.98 g ammonium sulphate, 4.2 g potassium hydroxide, 1 ml iron(III)sulphate (40 mg in 50 ml water), 50 mg L-leucine, 50 mg L-histidine, 50 mg adenine, 20 mg L-arginine hydrochloride, 20 mg L-methionine, 30 mg L-tyrosine, 30 mg L-isoleucine, 30 mg L-lysine hydrochloride, 25 mg L-phenylalanine, 100 mg L-glutamic acid, 150 mg L-valine, 375 mg L-serine); and chlorophenol red beta-D-galactopyranoside (0.250 ml).
17 beta-oestradiol (20 μl aliquots from 0.008 nM to 100 nM, prepared from 10 mg in 10 ml ethanol) and test compounds, in concentrations of 1, 10, 100, 1000 μM, were pipetted into 96-well plates in a sterile flow hood. The solvent was left to evaporate for about 40 min.
The growth medium containing yeast was dispensed to all wells, except blank wells, in aliquots of 100 μl. The plates were incubated at 32° C. in a humidified atmosphere for 3 days, and then read at 540/360 nm by a microtiter plate reader (labsystems Muliskan Ascent Reader, Thermo labsystems, Vantaa, Finland).

angiogenesis = conditions: in vitro and in vivo assays
[2] = tested on: human microvascular endothelial cells (hMVEC); experiment: in vitro angiogenesis assay: tube formation in 3-D fibrin matrices; format: cell-based; conditions: hMVEC on 3-D fibrin matrix, VEGF-A 25 ng/mL and TNFα 10 ng/mL, 7 days, FIG. 8
Description: Human fibrin matrices were prepared by the addition of 0.1 U/ml thrombin to a commercially obtained (Chromogenix AB, Mölndal, Sweden) mixture of 2 mg/ml fibrinogen (final concentrations), 2 mg/ml Na-citrate, 0.8 mg/ml NaCl, 3 μg/ml plasminogen in M199 medium and 2.5 U/ml factor XIII. 100 μl aliquots of this mixture were added to the wells of 96-well plates. After clotting at room temperature, the fibrin matrices were soaked with M199 supplemented with 10% HS and 10% NBCS for 2 h at 37° C. to inactivate the thrombin. […] Invading cells and the formation of tubular structures of hMVEC in the three-dimensional fibrin matrix were analysed by phase contrast microscopy. The total length of tube-like structures of four microscopic fields (7.3 mm^2/field) were (clockwise) measured using an Olympus CK2 microscope equipped with a monochrome CCD camera (MX5) connected to a computer with Optimas image analysis software, and expressed as mm/cm^2 (Koolwijk et al. J. Cell Biol. 1996, 132:1177-188).
HMVEC were cultured on top of a 3-D fibrin matrix in M199, 10% human serum, 10% NBCS supplemented with VEGF-A (25 ng/mL) and TNFα (10 ng/mL) in the presence or absence of the indicated concentrations (w/v) of the compositions A1, A2, A3, A4, A5, B4, B5 and B6. […] The data are expressed as the mean of two wells indicated by the error bars (FIG. 8 B).

- oestrogen-like activity (human oestrogen receptor): no significant oestrogen-like activity
Molecule: 4,5-dimethylsimmondsin [A4]
- effect on blood vessel growth in the CAM (in words) [1]: significant angiogenesis inhibition comparable with tangeritin
- angiogenesis-inhibiting activity in the CAM (in words) ([1]; Experiments 2 and 3, A4 in the same concentration as the total polar extract): lower than the total polar extract but nevertheless still significant

Molecule: 4,5-dimethylsimmondsin ferulate (cis/trans) [A5]
- angiogenesis-inhibiting activity (overall conclusion) (angiogenesis): higher angiogenesis-inhibiting activity than the unsubstituted dimethylsimmondsin
- angiogenesis-inhibiting activity (overall conclusion) (angiogenesis; listed as dimethylsimmondsin ferulates): significant angiogenesis-inhibiting activity, which is higher than the activity of unsubstituted dimethylsimmondsin

- oestrogen-like activity (human oestrogen receptor): no significant oestrogen-like activity
Molecule: COC1CC(OC2OC(CO)C(O)C(O)C2O)C(=CC#N)C(O)C1O (stereo not shown) [4-desmethylsimmondsin]

- oestrogen-like activity (human oestrogen receptor): no significant oestrogen-like activity
Molecule: CO[C@H]1[C@@H](O)C[C@@H](O[C@@H]2O[C@H](CO)[C@@H](O)[C@H](O)[C@H]2O)/C(=C\C#N)[C@@H]1O [5-desmethylsimmondsin]

- oestrogen-like activity (human oestrogen receptor): no significant oestrogen-like activity
Molecule: N#CC=C1CC(O)C(O)C(O)C1O[C@@H]1O[C@H](CO)[C@@H](O)[C@H](O)[C@H]1O (stereo partly shown) [B5, 4,5-didesmethylsimmondsin]
- inhibition of VEGF-induced in vitro tube formation [2]: highest biological activity

Molecule: COc1cc(C=CC(=O)OC2C(OC3CC(OC)C(OC)C(O)C3=CC#N)OC(CO)C(O)C2O)ccc1O (stereo not shown) [E simmondsin-2′-ferulate]
- oestrogen-like activity (human oestrogen receptor): no significant oestrogen-like activity

Molecule: COc1cc(/C=C\C(=O)O[C@@H]2[C@@H](O[C@@H]3C[C@H](OC)[C@H](OC)[C@@H](O)/C3=C/C#N)O[C@@H](CO)[C@H](O)[C@H]2O)ccc1O [Z simmondsin-2′-ferulate]
- oestrogen-like activity (human oestrogen receptor): no significant oestrogen-like activity

Molecule: VEGF [reference compound]
- effect on blood vessel growth in the CAM (in words) [1]: significant blood vessel growth compared with the negative control group (DMEM)

Molecule: desmethylsimmondsin
- inhibition of VEGF-induced in vitro tube formation [2]: highest biological activity
